The test system of this assay is T1, primary mouse cortical neurons.
T1 construct: primary cortical neurons, DIV 10
As to the kind of experiment: cells. On the set-up: Protection from NMDA-induced (30 uM, 10 min) neuronal death; Hoechst nuclear morphology by automated microscopy. Conditions: Cortical neurone, 20 h, read-out: % inhibition, inhibition of NMDA-induced cell death (protection score), 30 min pre-treatment. The method, boiled down: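 On DIV 10, primary mouse cortical neurons were given compound at 10 μM for 30 min at 37 °C, then 30 μM NMDA for 10 min, washed, and kept 20 h with compound. Dead cells were scored by nuclear morphology, and % protection was derived from survival relative to vehicle + NMDA and untreated controls.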

Where a name gives a salt, the structure may show the parent alone.

In general, inhibition refers to the drop in the measured response relative to a control, in per cent. `OCc1ccc(O[C@@H]2O[C@H](CO)[C@@H](O)[C@H](O)[C@H]2O)cc1` [Gastrodin(Gastrodine)]: the inhibition at 10 µM turned out to be 3.84%. As for `COc1c(N2CCNC(C)C2)c(F)cc2c(=O)c(C(=O)O)cn(C3CC3)c12` (centres unmarked) [Gatifloxacin], the figure is -10.3%. Regarding `Nc1ccn([C@@H]2O[C@H](CO)[C@@H](O)C2(F)F)c(=O)n1` [Gemcitabine HCl (Gemzar)], the inhibition at 10 µM is -9.76%. With `Cc1ccc(C)c(OCCCC(C)(C)C(=O)O)c1` [Gemfibrozil (Lopid)] the figure was 2.6%. With `C#C[C@]1(O)C=C[C@H]2[C@@H]3CCC4=CC(=O)CC[C@@H]4[C@H]3CC[C@@]21CC` [Gestodene], the inhibition at 10 µM was -1.48%.

Turning to `CCC1=C(C)CN(C(=O)NCCc2ccc(S(=O)(=O)NC(=O)N[C@H]3CC[C@H](C)CC3)cc2)C1=O` [Glimepiride], the inhibition at 10 µM was -11.4%.

Consider `Cc1cnc(C(=O)NCCc2ccc(S(=O)(=O)NC(=O)NC3CCCCC3)cc2)cn1` [Glipizide (Glucotrol)], for which the inhibition at 10 µM stood at 9.36%. Consider `COc1ccc(Cl)cc1C(=O)NCCc1ccc(S(=O)(=O)NC(=O)NC2CCCCC2)cc1` [Glyburide (Diabeta)], for which the inhibition at 10 µM stood at 0.906%.

For the compound `Cc1cc2c(C(C)C)c(O)c(O)c(C=O)c2c(O)c1-c1c(C)cc2c(C(C)C)c(O)c(O)c(C=O)c2c1O` [Gossypol], the inhibition at 10 µM was -2.2%. As for `CN(C)Cc1c[nH]c2ccccc12` [Gramine], the figure is -3.83%; as for `COc1ccccc1OCC(O)CO` (centres unmarked) [Guaifenesin (Guaiphenesin)], 13.1%; as for `Nc1nc2c(ncn2[C@@H]2O[C@H](CO)[C@@H](O)[C@H]2O)c(=O)[nH]1` [Guanosine], -1.96%. As for `O=C(CCCN1CCC(O)(c2ccc(Cl)cc2)CC1)c1ccc(F)cc1` [Haloperidol (Haldol)], the figure is 65%.

For the compound `Oc1cc2c(cc1O)[C@@H]1c3ccc(O)c(O)c3OC[C@]1(O)C2` [Hematoxylin (Hydroxybrazilin)], the inhibition at 10 µM stood at 1.27%.

On to `COc1ccc([C@@H]2CC(=O)c3c(O)cc(O)cc3O2)cc1O` [Hesperetin], for which the inhibition at 10 µM was -3.04%. With `COc1ccc([C@@H]2CC(=O)c3c(O)cc(O[C@@H]4O[C@H](CO[C@@H]5O[C@@H](C)[C@H](O)[C@@H](O)[C@H]5O)[C@@H](O)[C@H](O)[C@H]4O)cc3O2)cc1O` [Hesperidin] the figure was -3.55%. As for `C=CCc1ccc(O)c(-c2ccc(O)c(CC=C)c2)c1` [Honokiol], the figure is -2.26%. In the case of `CN(C)CCc1ccc(O)cc1` [Hordenine], the inhibition at 10 µM was -0.889%. With `NNc1nncc2ccccc12` [Hydralazine hydrochloride] the figure was -0.625%; with `NS(=O)(=O)c1cc2c(cc1Cl)NCNS2(=O)=O` [Hydrochlorothiazide], 8.57%; with `C[C@]12CCC(=O)C=C1CC[C@@H]1[C@@H]2[C@@H](O)C[C@@]2(C)[C@H]1CC[C@]2(O)C(=O)CO` [Hydrocortisone (Cortisol)], 4.6%. With `NC(=O)NO` [Hydroxyurea (Cytodrox)] the figure was -2.47%; with `C[C@H](CCC(=O)O)[C@H]1CC[C@H]2[C@@H]3C[C@H](O)[C@@H]4C[C@H](O)CC[C@]4(C)[C@H]3CC[C@]12C` [Hyodeoxycholic acid (HDCA)], -3.21%; with `O=c1[nH]cnc2nc[nH]c12` [Hypoxanthine], 1.08%.

As to `COc1ccc(-c2oc3c(CC=C(C)C)c(O[C@@H]4O[C@H](CO)[C@@H](O)[C@H](O)[C@H]4O)cc(O)c3c(=O)c2O[C@@H]2O[C@@H](C)[C@H](O)[C@@H](O)[C@H]2O)cc1` [Icariin], the inhibition at 10 µM was -2.42%. As to `COc1cc(C(C)=O)ccc1OCCCN1CCC(c2noc3cc(F)ccc23)CC1` [Iloperidone (Fanapt)], the inhibition at 10 µM turned out to be 21.7%. With `CC(C)Cn1cnc2c(N)nc3ccccc3c21` [Imiquimod] the figure was -8.7%; with `CC1Cc2ccccc2N1NC(=O)c1ccc(Cl)c(S(N)(=O)=O)c1` (centres unmarked) [Indapamide (Lozol)], 0.426%.

For `O=C1Nc2ccccc2/C1=C1/Nc2ccccc2C1=O` [Indirubin], the inhibition at 10 µM stood at 8.04%.

As to `OCc1c[nH]c2ccccc12` [Indole-3-carbinol], the inhibition at 10 µM is -2.03%. With `COc1ccc2c(c1)c(CC(=O)O)c(C)n2C(=O)c1ccc(Cl)cc1` [Indomethacin (Indocid, Indocin)], the inhibition at 10 µM is 3.41%. With `O=c1[nH]cnc2c1ncn2[C@@H]1O[C@H](CO)[C@@H](O)[C@H]1O` [Inosine] the figure was 19.8%. As for `CC(C)[N+]1(C)[C@@H]2CC[C@H]1CC(OC(=O)C(CO)c1ccccc1)C2` (some centres unmarked) [Ipratropium bromide], the inhibition at 10 µM was determined as 9.81%. `CC(C)Oc1ccc2c(=O)c(-c3ccccc3)coc2c1` [Ipriflavone]: the inhibition at 10 µM is -1.69%. With `CCCCC1=NC2(CCCC2)C(=O)N1Cc1ccc(-c2ccccc2-c2nnn[nH]2)cc1` [Irbesartan (Avapro)] the figure was 0.237%; with `O=C(/C=C/c1ccc(O)cc1)c1ccc(O)cc1O` [Isoliquiritigenin], 5.56%. As for `NNC(=O)c1ccncc1` [Isoniazid (Tubizid)], the figure is 45.6%; as for `CC(C)NCC(O)c1ccc(O)c(O)c1` (centres unmarked) [Isoprenaline hydrochloride], -0.7%. Take `CC1=C(/C=C/C(C)=C/C=C/C(C)=C\C(=O)O)C(C)(C)CCC1` [Isotretinoin]: the inhibition at 10 µM was -1.4%. With `O=c1c(O)c(-c2ccc(O)cc2)oc2cc(O)cc(O)c12` [Kaempferol] the figure was -2.58%. For the compound `CC(C(=O)O)c1cccc(C(=O)c2ccccc2)c1` (centres unmarked) [Ketoprofen (Actron)], the inhibition at 10 µM was found to be 30.2%.

Turning to `O=C(c1ccccc1)c1ccc2n1CCC2C(=O)O` (centres unmarked) [Ketorolac (Toradol)], the inhibition at 10 µM was 37.4%. As for `c1coc(CNc2ncnc3[nH]cnc23)c1` [Kinetin (6-Furfuryladenine)], the figure is -0.453%; as for `C[C@H](O)[C@H](O)[C@@H](O)[C@@H](O)C=O` [L(+)-Rhamnose Monohydrate], 0.562%; as for `CNC[C@@H](O)c1ccc(O)c(O)c1` [L-Adrenaline (Epinephrine)], 0.37%. Turning to `NC(=O)CC[C@H](N)C(=O)O` [L-Glutamine], the inhibition at 10 µM is -2.01%. As for `C[N+](C)(C)C[C@H](O)CC(=O)[O-]` [L-carnitine (Levocarnitine)], the inhibition at 10 µM came out at 3.2%. With `Nc1ccn([C@@H]2CS[C@H](CO)O2)c(=O)n1` [Lamivudine (Epivir)] the figure was 0.555%; with `Cc1c(OCC(F)(F)F)ccnc1C[S+]([O-])c1nc2ccccc2[nH]1` (centres unmarked) [Lansoprazole], -7.28%; with `CS(=O)(=O)CCNCc1ccc(-c2ccc3ncnc(Nc4ccc(OCc5cccc(F)c5)c(Cl)c4)c3c2)o1` [Lapatinib Ditosylate (Tykerb)], 4.76%. `Cc1oncc1C(=O)Nc1ccc(C(F)(F)F)cc1` [Leflunomide]: the inhibition at 10 µM was determined as 15.6%. As for `Nc1cccc2c1CN(C1CCC(=O)NC1=O)C2=O` (centres unmarked) [Lenalidomide], the figure is -2.36%; as for `N#Cc1ccc(C(c2ccc(C#N)cc2)n2cncn2)cc1` [Letrozole], 0.34%; as for `Nc1nc2c(c(=O)[nH]1)N(C=O)C(CNc1ccc(C(=O)N[C@@H](CCC(=O)O)C(=O)O)cc1)CN2` (some centres unmarked) [Leucovorin Calcium], -10.9%. With `c1ccc([C@H]2CN3CCSC3=N2)cc1` [Levamisole Hydrochloride (Ergamisol)] the figure was 19.8%. With `N[C@@H](Cc1ccc(O)c(O)c1)C(=O)O` [Levodopa (Sinemet)] the figure was 0.209%. As to `C[C@H]1COc2c(N3CCN(C)CC3)c(F)cc3c(=O)c(C(=O)O)cn1c23` [Levofloxacin (Levaquin)], the inhibition at 10 µM was -4.92%.

As to `C#C[C@]1(O)CC[C@H]2[C@@H]3CCC4=CC(=O)CC[C@@H]4[C@H]3CC[C@@]21CC` [Levonorgestrel (Levonelle)], the inhibition at 10 µM is -1.05%. Turning to `CCN(CC)CC(=O)Nc1c(C)cccc1C` [Lidocaine (Alphacaine)], the inhibition at 10 µM is -8.6%. `CC1(C)O[C@H]2CC(=O)OC[C@]23[C@H]2CC[C@@]4(C)[C@H](c5ccoc5)OC(=O)[C@H]5O[C@]54[C@]2(C)C(=O)C[C@@H]13` [Limonin]: the inhibition at 10 µM was -3.17%. As to `CCC[C@@H]1C[C@@H](C(=O)N[C@@H]([C@H]2O[C@H](SC)[C@H](O)[C@@H](O)[C@H]2O)[C@@H](C)O)N(C)C1` [Lincomycin hydrochloride (Lincocin)], the inhibition at 10 µM is -7.87%.

`CC(=O)NC[C@H]1CN(c2ccc(N3CCOCC3)c(F)c2)C(=O)O1` [Linezolid (Zyvox)]: the inhibition at 10 µM was 37%. `CCn1cc(C(=O)O)c(=O)c2cc(F)c(N3CCNC(C)C3)c(F)c21` (centres unmarked) [Lomefloxacin hydrochloride (Maxaquin)]: the inhibition at 10 µM came out at 3.08%.

Regarding `CN(C)C(=O)C(CCN1CCC(O)(c2ccc(Cl)cc2)CC1)(c1ccccc1)c1ccccc1` [Loperamide hydrochloride], the inhibition at 10 µM is -2.48%. On to `Cc1cccc(C)c1OCC(=O)N[C@@H](Cc1ccccc1)[C@@H](O)C[C@H](Cc1ccccc1)NC(=O)[C@H](C(C)C)N1CCCNC1=O` [Lopinavir (ABT-378)], for which the inhibition at 10 µM turned out to be 1.09%. Turning to `CCOC(=O)N1CCC(=C2c3ccc(Cl)cc3CCc3cccnc32)CC1` [Loratadine], the inhibition at 10 µM was -11.1%.

As for `CCOC(=O)O[C@]1(C(=O)OCCl)CC[C@H]2[C@@H]3CCC4=CC(=O)C=C[C@]4(C)[C@H]3[C@@H](O)C[C@@]21C` [Loteprednol Etabonate], the inhibition at 10 µM was 30.7%. With `O=c1cc(-c2ccc(O)c(O)c2)oc2cc(O)cc(O)c12` [Luteolin] the figure was -2.28%.

For the origin of these results see publication PMC7489219 (Molecular Brain, 2020).
